# Data published in patent US4450234A, “Antibiotic C-15003 PHM and production thereof” (Takeda Chemical Industries, Ltd., priority 1979, dated 1984).
# Key:
# [1] = Neutral lipophilic character; assay type: physicochemical
# [2] = system: Tetrahymena pyriformis W; assay: Antiprotozoan growth inhibition, serial broth dilution method; assay type: cell-based; conditions: 44 h, 28° C., 44 to 48 hours, pH 7.0, serial broth dilution, read-out: growth inhibitory concentration
# Procedure: In addition, using Tetrahymena pyriformis W strain as the test organism and the assay medium composed of 20 g proteose peptone (Difco, U.S.A.), 1 g yeast extract, 2 g glucose, 1000 ml distilled water and 10 ml 1 M phosphate buffer, pH 7.0, cultivation was carried out at 28° C. for 44 to 48 hours and the growth inhibitory concentration of the antibiotic was determined by the serial broth dilution method.
# Tetrahymena pyriformis W, as the test organism, was cultivated on an assay medium [20 g of proteose-peptone (Difco, U.S.A.), 1 g of yeast extract, 2 g of glucose, 1000 ml of distilled water, 10 ml of 1 M phosphate buffer, pH 7.0] at 28° C. for 44 to 48 hours and the growth inhibitory activity of the compound against the above-mentioned strain was assayed by the serial dilution method.
# [3] = system: Proteus mirabilis; assay: Antibacterial activity, paper disk method; assay type: cell-based; conditions: paper disk 8 mm, 0.02 ml of 300 μg/ml solution, Trypticase-soy-agar
# Procedure: (§1) Using Trypticase-soy-agar (Baltimore Biologicals, U.S.A.) as the assay medium, the growth inhibitory concentrations of the compound against the various microorganisms named hereinbelow were determined by the paperdisk method. Thus, on plate media containing the following microorganisms, respectively, minimal inhibitory concentrations were determined using paper disks imbibed with 0.02 ml of a 300 μg/ml solution of PHM-3 or PHM-4 (disks, Toyo Seisakusho, Japan, thin-type, diam. 8 mm).
# (§2) Escherichia coli, Proteus vulgaris, Proteus mirabilis, Pseudomonas aeruginosa, Staphylococcus aureus, Bacillus subtilis, Bacillus cereus, Klebsiella pneumoniae, Serratia marcessence, Mycobacterium avium.
# (§3) Using Trypticase-soy-agar (Baltimore Biologicals, U.S.A.) as the test medium, the growth inhibitory activity of the compound against the organisms named below was assayed by the paper disk method. Thus, on the plate media each containing one of the undermentioned organisms, the activity of the compound was tested using paper disks (Toyo Seisakusho, Japan, thin type, diam. 8 mm) imbibed with 0.02 ml of a 300 μg/ml solution of PHM-3-acetate.
# (§4) Escherichia coli, Proteus vulgaris, Proteus mirabilis, Pseudomonas aeruginosa, Staphylococcus aureus, Bacillus subtilis, Bacillus cereus, Klebsiella pneumoniae, Serratia marcescence, Mycobacterium avium.
# [4] = system: Proteus vulgaris; assay: Antibacterial activity, paper disk method; assay type: cell-based; conditions: paper disk 8 mm, 0.02 ml of 300 μg/ml solution, Trypticase-soy-agar
# Procedure: as §1, §2, §3, §4
# [5] = system: Escherichia coli; assay: Antibacterial activity, paper disk method; assay type: cell-based; conditions: paper disk 8 mm, 0.02 ml of 300 μg/ml solution, Trypticase-soy-agar
# Procedure: as §1, §2, §3, §4
# [6] = system: Bacillus cereus; assay: Antibacterial activity, paper disk method; assay type: cell-based; conditions: paper disk 8 mm, 0.02 ml of 300 μg/ml solution, Trypticase-soy-agar
# Procedure: as §1, §2, §3, §4
# [7] = system: Mycobacterium avium; assay: Antibacterial activity, paper disk method; assay type: cell-based; conditions: paper disk 8 mm, 0.02 ml of 300 μg/ml solution, Trypticase-soy-agar
# Procedure: as §1, §2, §3, §4
# [8] = system: Bacillus subtilis; assay: Antibacterial activity, paper disk method; assay type: cell-based; conditions: paper disk 8 mm, 0.02 ml of 300 μg/ml solution, Trypticase-soy-agar
# Procedure: as §1, §2, §3, §4
# [9] = system: Pseudomonas aeruginosa; assay: Antibacterial activity, paper disk method; assay type: cell-based; conditions: paper disk 8 mm, 0.02 ml of 300 μg/ml solution, Trypticase-soy-agar
# Procedure: as §1, §2, §3, §4
# [10] = system: Klebsiella pneumoniae; assay: Antibacterial activity, paper disk method; assay type: cell-based; conditions: paper disk 8 mm, 0.02 ml of 300 μg/ml solution, Trypticase-soy-agar
# Procedure: as §1, §2, §3, §4
# [11] = system: Staphylococcus aureus; assay: Antibacterial activity, paper disk method; assay type: cell-based; conditions: paper disk 8 mm, 0.02 ml of 300 μg/ml solution, Trypticase-soy-agar
# Procedure: as §1, §2, §3, §4
# [12] = system: Serratia marcessence; assay: Antibacterial activity, paper disk method; assay type: cell-based; conditions: paper disk 8 mm, 0.02 ml of 300 μg/ml solution, Trypticase-soy-agar
# Procedure: as §1, §2, §3, §4
# [13] = system: Nocardia sp. No. N-1231; assay: Antibiotic resistance of No. N-1231 strain; assay type: cell-based
smiles,measurement,setting,value
"COc1cc2cc(c1Cl)N(C)C(=O)CC(O)C1(C)OC1C(C)C1CC(O)(NC(=O)O1)C(OC)/C=C/C=C(\C)C2 (stereo not drawn) [P-0, maytansinol]",neutral lipophilic / fat-soluble character,[1],neutral lipophilic
"COc1cc2cc(c1Cl)N(C)C(=O)CC(OC(C)=O)C1(C)OC1C(C)C1CC(O)(NC(=O)O1)C(OC)C=CC=C(C)C2 (stereo not drawn) [P-1, maytanacine]",neutral lipophilic / fat-soluble character,[1],neutral lipophilic
"CCC(=O)OC1CC(=O)N(C)c2cc(cc(OC)c2Cl)CC(C)=CC=CC(OC)C2(O)CC(OC(=O)N2)C(C)C2OC12C (stereo not drawn) [P-2, maytansinol propionate]",neutral lipophilic / fat-soluble character,[1],neutral lipophilic
COc1cc2cc(c1Cl)N(C)C(=O)CC(OC(=O)C(C)C)C1(C)OC1C(C)C1CC(O)(NC(=O)O1)C(OC)C=CC=C(COC(C)=O)C2 (stereo not drawn) [PHM-3-acetate],MIC,[2],8 µg/mL
same,activity (growth inhibition),[3],failed to show activity
same,activity (growth inhibition),[4],failed to show activity
same,activity (growth inhibition),[5],failed to show activity
same,activity (growth inhibition),[6],failed to show activity
same,activity (growth inhibition),[7],failed to show activity
same,activity (growth inhibition),[8],failed to show activity
same,activity (growth inhibition),[9],failed to show activity
same,activity (growth inhibition),[10],failed to show activity
same,activity (growth inhibition),[11],failed to show activity
same,activity (growth inhibition),[12],failed to show activity
COc1cc2cc(c1Cl)N(C)C(=O)CC(OC(=O)C(C)C)C1(C)OC1C(C)C1CC(O)(NC(=O)O1)C(OC)C=CC=C(CO)C2 (stereo not drawn) [PHM-3],MIC,[2],40 µg/mL
same,activity (growth inhibition),[3],no activity
same,activity (growth inhibition),[4],no activity
same,activity (growth inhibition),[5],no activity
same,activity (growth inhibition),[6],no activity
same,activity (growth inhibition),[7],no activity
same,activity (growth inhibition),[8],no activity
same,activity (growth inhibition),[9],no activity
same,activity (growth inhibition),[10],no activity
same,activity (growth inhibition),[11],no activity
same,activity (growth inhibition),[12],no activity
COc1cc2cc(c1Cl)N(C)C(=O)CC(OC(=O)CC(C)C)C1(C)OC1C(C)C1CC(O)(NC(=O)O1)C(OC)C=CC=C(CO)C2 (stereo not drawn) [PHM-4],MIC,[2],40 µg/mL
same,activity (growth inhibition),[3],no activity
same,activity (growth inhibition),[4],no activity
same,activity (growth inhibition),[5],no activity
same,activity (growth inhibition),[6],no activity
same,activity (growth inhibition),[7],no activity
same,activity (growth inhibition),[8],no activity
same,activity (growth inhibition),[9],no activity
same,activity (growth inhibition),[10],no activity
same,activity (growth inhibition),[11],no activity
same,activity (growth inhibition),[12],no activity
CCC[C@@H]1C[C@@H](C(=O)N[C@@H]([C@H]2O[C@H](SC)[C@H](O)[C@@H](O)[C@H]2O)[C@@H](C)O)N(C)C1 [lincomycin],resistance of No. N-1231 strain,[13],resistant
CC1(C)S[C@@H]2[C@H](NC(=O)Cc3ccccc3)C(=O)N2[C@H]1C(=O)O [penicillin G],resistance of No. N-1231 strain,[13],resistant
[H]/N=C(/N)N[C@H]1[C@H](O)[C@@H](O)[C@H](O[C@@H]2O[C@@H](C)[C@](O)(C=O)[C@H]2O[C@@H]2O[C@@H](CO)[C@H](O)[C@@H](O)[C@@H]2NC)[C@@H](N/C(N)=N\[H])[C@@H]1O [streptomycin],resistance of No. N-1231 strain,[13],resistant
